From patent US20250163054A1, “SUBSTITUTED BICYCLIC HETEROARYL COMPOUNDS USEFUL AS INHIBITORS OF TLR9” (Bristol-Myers Squibb Company, priority 2022, published 2025)

Experiments:
Type in all cases: cell-based
[1] = biological target: T1, human TLR8 (Homo sapiens, UniProt Q9NR97); experiment: TLR7/8/9 Inhibition Reporter Assays (TLR8); details: HEK-Blue cells overexpressing human TLR8, SEAP reporter, stimulated with TLR8 ligand R848
T1 construct: host or cells: HEK-Blue cells (HEK293-derived reporter line)
T1 sequence (Q9NR97 27-1041): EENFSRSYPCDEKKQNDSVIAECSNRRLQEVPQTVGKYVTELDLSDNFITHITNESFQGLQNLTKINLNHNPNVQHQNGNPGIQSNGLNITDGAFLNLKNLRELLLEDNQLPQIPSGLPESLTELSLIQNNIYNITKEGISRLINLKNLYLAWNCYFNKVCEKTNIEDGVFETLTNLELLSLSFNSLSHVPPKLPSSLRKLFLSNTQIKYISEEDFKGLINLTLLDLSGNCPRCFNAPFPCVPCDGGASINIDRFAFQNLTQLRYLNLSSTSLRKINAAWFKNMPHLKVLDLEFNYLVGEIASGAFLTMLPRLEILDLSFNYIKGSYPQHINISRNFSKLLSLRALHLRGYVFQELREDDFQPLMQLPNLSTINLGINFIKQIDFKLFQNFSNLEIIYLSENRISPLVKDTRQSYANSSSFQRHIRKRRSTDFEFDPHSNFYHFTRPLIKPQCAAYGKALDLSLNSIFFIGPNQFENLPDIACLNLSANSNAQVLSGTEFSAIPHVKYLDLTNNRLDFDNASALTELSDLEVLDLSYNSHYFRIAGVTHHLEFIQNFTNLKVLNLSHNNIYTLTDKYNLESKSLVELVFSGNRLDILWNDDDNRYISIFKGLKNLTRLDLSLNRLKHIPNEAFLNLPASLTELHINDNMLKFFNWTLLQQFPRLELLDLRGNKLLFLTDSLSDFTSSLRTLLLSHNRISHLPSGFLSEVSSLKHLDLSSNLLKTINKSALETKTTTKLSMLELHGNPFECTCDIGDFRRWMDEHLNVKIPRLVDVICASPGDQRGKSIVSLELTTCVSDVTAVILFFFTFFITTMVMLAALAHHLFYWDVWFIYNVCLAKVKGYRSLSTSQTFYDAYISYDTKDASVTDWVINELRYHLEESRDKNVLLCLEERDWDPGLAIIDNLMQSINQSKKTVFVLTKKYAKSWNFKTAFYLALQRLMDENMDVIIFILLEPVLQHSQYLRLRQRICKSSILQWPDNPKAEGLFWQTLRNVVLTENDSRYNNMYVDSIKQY
Experimental: (§1) HEK-Blue™-cells (Invivogen) overexpressing human TLR7, TLR8 or TLR9 receptors were used for screening inhibitors of these receptors using an inducible SEAP (secreted embryonic alkaline phosphatase) reporter gene under the control of the IFN-β minimal promoter fused to five NF-κB and AP-1-binding sites. Cells are seeded into Greiner 384 well plates (15000 cells per well) that are predispensed (by ECHO) with testing compounds in DMSO to yield a final dose response concentration range of 0.85 nM-[…]. After a 60 minute compound pre-treatment in 37° C. incubator, the cells are then stimulated with a TLR7 ligand (gardiquimod at a final concentration of […]), TLR8 ligand (R848 at a final concentration of […]) or TLR9 ligand (ODN2006 at a final concentration of 200 nM) to activate NF-κB and AP-1 which induce the production of SEAP. After a 22 hour incubation at 37° C., 5% CO2, SEAP levels are determined with the addition of HEK-Blue™ Detection reagent (Invivogen), a cell culture medium that allows for detection of SEAP, according to manufacturer's specifications. The percent inhibition is determined as the % reduction in the HEK-Blue signal present in wells treated with agonist plus DMSO alone compared to wells treated with a known inhibitor.

[2] = biological target: T2, human TLR7 (Homo sapiens, UniProt Q9NYK1); experiment: TLR7/8/9 Inhibition Reporter Assays (TLR7); details: HEK-Blue cells overexpressing human TLR7, SEAP reporter, stimulated with TLR7 ligand gardiquimod
T2 construct: host or cells: HEK-Blue cells (HEK293-derived reporter line)
T2 sequence (Q9NYK1 27-1049): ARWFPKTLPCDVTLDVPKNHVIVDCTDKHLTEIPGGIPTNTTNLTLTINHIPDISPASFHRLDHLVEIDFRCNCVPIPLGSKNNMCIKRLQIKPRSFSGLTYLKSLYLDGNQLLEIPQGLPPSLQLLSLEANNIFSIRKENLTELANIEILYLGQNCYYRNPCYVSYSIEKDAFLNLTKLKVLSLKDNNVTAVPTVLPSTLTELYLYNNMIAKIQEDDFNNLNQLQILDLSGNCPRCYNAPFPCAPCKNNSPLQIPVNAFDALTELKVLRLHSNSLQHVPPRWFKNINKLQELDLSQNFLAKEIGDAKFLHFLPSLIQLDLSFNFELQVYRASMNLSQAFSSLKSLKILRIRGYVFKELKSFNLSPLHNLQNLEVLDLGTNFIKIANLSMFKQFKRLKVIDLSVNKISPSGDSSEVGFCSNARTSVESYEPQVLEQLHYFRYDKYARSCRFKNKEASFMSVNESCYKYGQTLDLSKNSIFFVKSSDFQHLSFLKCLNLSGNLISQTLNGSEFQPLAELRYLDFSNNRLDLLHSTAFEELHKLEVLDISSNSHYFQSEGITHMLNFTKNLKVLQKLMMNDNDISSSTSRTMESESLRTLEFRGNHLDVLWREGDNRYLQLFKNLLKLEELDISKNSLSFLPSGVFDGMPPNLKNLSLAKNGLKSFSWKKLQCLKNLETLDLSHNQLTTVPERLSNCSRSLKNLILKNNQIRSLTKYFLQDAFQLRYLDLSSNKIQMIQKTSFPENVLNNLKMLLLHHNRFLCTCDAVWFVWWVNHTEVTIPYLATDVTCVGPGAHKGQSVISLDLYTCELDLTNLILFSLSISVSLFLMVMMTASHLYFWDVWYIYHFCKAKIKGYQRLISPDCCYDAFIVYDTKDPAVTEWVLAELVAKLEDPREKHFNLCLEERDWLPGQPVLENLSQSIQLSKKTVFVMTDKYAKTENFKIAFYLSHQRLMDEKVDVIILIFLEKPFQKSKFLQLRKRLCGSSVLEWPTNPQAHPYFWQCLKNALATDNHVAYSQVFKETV
Experimental: as §1

[3] = biological target: T3, human TLR9 (Homo sapiens, UniProt Q9NR96); experiment: TLR7/8/9 Inhibition Reporter Assays (TLR9); details: HEK-Blue cells overexpressing human TLR9, SEAP reporter, stimulated with TLR9 ligand ODN2006
T3 construct: host or cells: HEK-Blue cells (HEK293-derived reporter line)
T3 sequence (Q9NR96 26-1032): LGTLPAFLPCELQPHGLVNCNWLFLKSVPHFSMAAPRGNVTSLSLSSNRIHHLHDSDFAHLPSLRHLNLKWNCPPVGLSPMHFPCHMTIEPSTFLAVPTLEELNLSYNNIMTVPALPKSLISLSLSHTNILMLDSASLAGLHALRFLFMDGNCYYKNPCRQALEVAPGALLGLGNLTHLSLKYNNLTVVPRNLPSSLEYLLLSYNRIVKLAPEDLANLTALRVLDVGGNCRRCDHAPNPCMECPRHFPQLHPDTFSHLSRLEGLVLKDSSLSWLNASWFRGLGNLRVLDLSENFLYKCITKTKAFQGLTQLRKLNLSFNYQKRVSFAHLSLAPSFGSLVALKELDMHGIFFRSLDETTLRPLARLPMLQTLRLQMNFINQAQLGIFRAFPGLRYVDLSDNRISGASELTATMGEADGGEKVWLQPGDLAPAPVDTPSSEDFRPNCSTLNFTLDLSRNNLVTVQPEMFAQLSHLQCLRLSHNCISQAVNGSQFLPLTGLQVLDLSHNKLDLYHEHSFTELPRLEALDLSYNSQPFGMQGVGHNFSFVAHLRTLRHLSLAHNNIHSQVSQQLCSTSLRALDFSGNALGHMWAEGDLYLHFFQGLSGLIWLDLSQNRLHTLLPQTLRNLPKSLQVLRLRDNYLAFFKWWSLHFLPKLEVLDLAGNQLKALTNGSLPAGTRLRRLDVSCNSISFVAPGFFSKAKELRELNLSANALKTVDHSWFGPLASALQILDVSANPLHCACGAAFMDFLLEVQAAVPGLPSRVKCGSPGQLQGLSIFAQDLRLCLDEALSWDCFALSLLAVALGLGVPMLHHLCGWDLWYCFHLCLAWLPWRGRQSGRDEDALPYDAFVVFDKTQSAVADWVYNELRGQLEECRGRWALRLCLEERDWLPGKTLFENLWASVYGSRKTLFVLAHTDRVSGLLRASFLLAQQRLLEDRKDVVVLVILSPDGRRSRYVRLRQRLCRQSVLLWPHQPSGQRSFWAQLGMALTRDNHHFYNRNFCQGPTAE
Experimental: as §1

Row | IC50 [1] | IC50 [2] | IC50 [3] | Structure (SMILES)
1 | 2.2 µM | 3.3 µM | 0.65 µM | Cc1nc(-c2ccc(N3CC4(CCN(CC(C)(C)O)CC4)C3)cc2)cc2c1nc(-c1ccc(S(C)(=O)=O)cc1)n2C [Example 100, 1-(2-(4-(1,4-dimethyl-2-(4-(methylsulfonyl)phenyl)-1H-imidazo[4,5-c]pyridin-6-yl)phenyl)-2,7-diazaspiro[3.5]nonan-7-yl)-2-methylpropan-2-ol]
2 | 9.1 µM | 0.47 µM | 0.22 µM | COc1cc(-c2nc3c(C)nc(-c4ccc(N5CCN(C(C)C)CC5)cc4)cc3n2C)cn2ncnc12 [Example 9, 6-(6-(4-(4-isopropylpiperazin-1-yl)phenyl)-1,4-dimethyl-1H-imidazo[4,5-c]pyridin-2-yl)-8-methoxy-[1,2,4]triazolo[1,5-a]pyridine]
3 | 1.8 µM | 1.9 µM | 0.041 µM | Cc1nc(-c2ccc(N3C[C@@H]4CN(C(C)C)C[C@@H]4C3)cc2)cc2c1nc(-c1ccc(S(C)(=O)=O)cc1)n2C [Example 67, 6-(4-((3aR,6aS)-5-isopropylhexahydropyrrolo[3,4-c]pyrrol-2(1H)-yl)phenyl)-1,4-dimethyl-2-(4-(methylsulfonyl)phenyl)-1H-imidazo[4,5-c]pyridine]
4 | > 50 µM | 1.8 µM | 0.085 µM | COCCN1CC2(C1)CN(c1ccc(-c3cc4c(nc(-c5ccc(OC)c(OC)c5)n4C)c(C)n3)cc1)C2 [Example 101, 2-(3,4-dimethoxyphenyl)-6-(4-(6-(2-methoxyethyl)-2,6-diazaspiro[3.3]heptan-2-yl)phenyl)-1,4-dimethyl-1H-imidazo[4,5-c]pyridine]
5 | > 50 µM | 3.3 µM | 0.16 µM | CC(C)N1CCC(N2CC=C(c3cc4c(nc(-c5ccc(S(C)(=O)=O)cc5)n4C)c(C(F)(F)F)n3)CC2)CC1 [Example 35, 6-(1-(1-isopropylpiperidin-4-yl)-1,2,3,6-tetrahydropyridin-4-yl)-1-methyl-2-(4-(methylsulfonyl)phenyl)-4-(trifluoromethyl)-1H-imidazo[4,5-c]pyridine]
6 | 3 µM | 6.7 µM | 0.27 µM | CC(C)CN1CC2(CCN(c3ccc(-c4cc5c(cn4)nc(-c4ccc(S(C)(=O)=O)cc4)n5C4CC4)cc3)CC2)C1 [Example 86, 1-cyclopropyl-6-(4-(2-isobutyl-2,7-diazaspiro[3.5]nonan-7-yl)phenyl)-2-(4-(methylsulfonyl)phenyl)-1H-imidazo[4,5-c]pyridine]

The next lines start with the compound.

Row | Structure (SMILES) | IC50 [1] | IC50 [2] | IC50 [3]
7 | CC(C)CN1CCC(N2CCC(c3cc4c(nc(-c5ccc(S(C)(=O)=O)cc5)n4C)c(C(F)(F)F)n3)CC2)CC1 [Example 33, 6-(1′-isobutyl-[1,4′-bipiperidin]-4-yl)-1-methyl-2-(4-(methylsulfonyl)phenyl)-4-(trifluoromethyl)-1H-imidazo[4,5-c]pyridine] | > 50 µM | 1.4 µM | 0.59 µM
8 | Cc1nc(C2CCN(C3CCN(CC(C)C)CC3)CC2)cc2c1nc(-c1ccc(S(C)(=O)=O)cc1)n2C [Example 39, 6-(1′-isobutyl-[1,4′-bipiperidin]-4-yl)-1,4-dimethyl-2-(4-(methylsulfonyl)phenyl)-1H-imidazo[4,5-c]pyridine] | > 50 µM | 0.92 µM | 0.036 µM
9 | Cc1nc(-c2ccc(CN3CCC(N4CCOCC4)CC3)cc2)cc2c1nc(-c1ccc(S(C)(=O)=O)cc1)n2C1CC1 [Example 48, 4-(1-(4-(1-cyclopropyl-4-methyl-2-(4-(methylsulfonyl)phenyl)-1H-imidazo[4,5-c]pyridin-6-yl)benzyl)piperidin-4-yl) morpholine] | 1.7 µM | 3.8 µM | 0.27 µM
10 | Cn1c(-c2ccc(S(C)(=O)=O)cc2)nc2c(C(F)(F)F)nc(C3=CCN(C4CCN(CC(C)(C)O)CC4)CC3)cc21 [Example 37, 2-methyl-1-(4-(4-(1-methyl-2-(4-(methylsulfonyl)phenyl)-4-(trifluoromethyl)-1H-imidazo[4,5-c]pyridin-6-yl)-3,6-dihydropyridin-1(2H)-yl)piperidin-1-yl)propan-2-ol] | > 50 µM | 13 µM | 1.1 µM
11 | Cc1nc(-c2ccc(N3CCN(CC(C)C)CC3)cc2)cc2c1nc(-c1ccc(S(C)(=O)=O)cc1)n2C [Example 7, 6-(4-(4-isobutylpiperazin-1-yl)phenyl)-1,4-dimethyl-2-(4-(methylsulfonyl)phenyl)-1H-imidazo[4,5-c]pyridine] | > 50 µM | 7 µM | 0.24 µM
